Experimental data from patent publication US10800806B2, “Sterol derivatives and use thereof for treating diseases involving transformed astrocyte cells or for treating malignant haemopathies” (BETA INNOV, priority 2012, dated 2020).

System: partially purified LDH from human GBM lines (U87-MG)
Experiment: Inhibition of LDH activity, in gel assay after IEF
Assay type: biochemical
Details: ethanolic form, 36 mM
Protocol: Next, the LDH activities and their inhibition were detected by the “in gel assay” technique (25). The source of activity used was LDH LL and LDH, partially purified, from human GBM lines U87-MG (LDH GBM). “In gel assay” detection was carried out after isoelectric focusing (IEF) on electrophoresis gels of the LDH LL and LDH GBM samples.
The cells collected in phosphate buffer (50 mM, Ph 7.2.Pi) undergo several freeze (−20° C.)/thaw cycles and the cellular material is homogenized. After centrifugation at 10,000 g for 45 min at 4° C., the supernatant is collected and aliquots containing 10% glycerol (v:v) are frozen at −80° C. At the desired time, the aliquots, after thawing, are chromatographed on a filtration column (Biogel P-60, BioRad) prepared in Pi. The volume of gel is 9 ml and the inside diameter of the column is 0.4 cm. Elution is carried out at atmospheric pressure. […]
The LDH activity is detected by the lactate/NAD/MTT/phenazine methosulphate system (formation of a precipitate of the formazan type in the IEF gel); this system is described in reference (25). […]
The activity of LDH is detected by the “in gel assay” technique on IEF electrophoresis gels, which were described in the section “A/ PROTOCOLS 6)” (25); the precision of this technique is 0.2 unit of pH. The activity of LDH is detected by a dark blue precipitate, of the formazan type, the site where LDH activity is located.

For `CC(=O)OC1C=C2CC(OC(=O)C3COC(C)(C)O3)CCC2(C)C2CCC3(C)C(C(C)CCCC(C)C)CCC3C12` (stereo not shown) [Molecule 2.b, 7-acetoxy-10,13-dimethyl-17-(6-methylheptan-2-yl)-2,3,4,7,8,9,10,11,12,13,14,15,16,17-tetradecahydro-1H-cyclopenta[a]phenanthren-3-yl 2,2-dimethyl-1,3-dioxolane-4-carboxylate], the “inhibition of the enzymatic activity of LDH GBM” value was “partially”.
